The test system of test [1] is HCT 116. The test is described as follows: Tumour cell proliferation/vitality assay (Alamar Blue), HCT 116. To be noted: Homo sapiens; vitality assay, HCT 116 cells. Type of test: cell-based. As for the experimental part: (§1) In the present experiment description, the inhibition of tumour cell proliferation/tumour cell vitality by active compounds is described.
(§2) The cells are sown in a suitable cell density in microtitre plates (96-well format) and the test substances are added in the form of a concentration series. After four further days of cultivation in serum-containing medium, the tumour cell proliferation/tumour cell vitality can be determined by means of an Alamar Blue test system.
(§3) The cells are cultivated in medium. At intervals of several days, the cells are detached from the culture dishes with the aid of trypsin solution and sown in suitable dilution in fresh medium. The cells are cultivated at 37° Celsius and 10% CO2.
(§4) A defined number of cells (for example 2000 cells) per culture/well in a volume of 180 μl of culture medium are sown in microtitre plates (96 well cell-culture plates) using a multichannel pipette. The cells are subsequently cultivated in a CO2 incubator (37° C. and 10% CO2).
(§5) The test substances are dissolved, for example, in DMSO and subsequently employed in corresponding concentration (if desired in a dilution series) in the cell culture medium. The dilution steps can be adapted depending on the efficiency of the active compounds and the desired spread of the concentrations. Cell culture medium is added to the test substances in corresponding concentrations. The addition of the test substances to the cells can take place on the same day as the sowing of the cells. To this end, in each case 20 μl of substance solution from the predilution plate are added to the cultures/wells. The cells are cultivated for a further 4 days at 37° Celsius and 10% CO2.
(§6) In each case, 20 μl of Alamar Blue reagent are added per well, and the microtitre plates are incubated, for example, for a further seven hours in a CO2 incubator (at 37° C. and 10% CO2). The plates are measured in a reader with a fluorescence filter at a wavelength of 540 nm. The plates can be shaken gently immediately before the measurement.
(§7) The absorbance value of the medium control (no cells and test substances used) is subtracted from all other absorbance values. The controls (cells without test substance) are set equal to 100 percent, and all other absorbance values are set in relation thereto (for example in % of control): […]

Test [2] concerns A2780. The test is described as follows: Tumour cell proliferation/vitality assay (Alamar Blue), A2780. To be noted: Homo sapiens; vitality assay, A2780 cells. In kind it is cell-based. As for the experimental part: as §1, §2, §3, §4, §5, §6, §7
(In general: Resazurin is reduced to fluorescent resorufin, in cell work by metabolically active cells.)

Test [3] has as its system TGF-beta. The test is described as follows: Inhibition of TGF-beta-mediated effects (elimination of TGF-beta-mediated growth inhibition, Mv1Lu cells, Crystal Violet). In kind it is cell-based. The protocol: In-Vitro (Enzyme) Assay for Determination of the Efficacy of the Inhibitors of the Inhibition of TGF-Beta-Mediated Effects
As an example, the ability of the inhibitors to eliminate TGF-beta-mediated growth inhibition is tested.
Cells of the lung epithelial cell line Mv1Lu are sown in a defined cell density in a 96-well microtitre plate and cultivated overnight under standard conditions. Next day, the medium is replaced by medium which comprises 0.5% of FCS and 1 ng/ml of TGF-beta, and the test substances are added in defined concentrations, generally in the form of dilution series with 5-fold steps. The concentration of the solvent DMSO is constant at 0.5%. After a further two days, Crystal Violet staining of the cells is carried out. After extraction of the Crystal Violet from the fixed cells, the absorption is measured spectrophotometrically at 550 nm. It can be used as a quantitative measure of the adherent cells present and thus of the cell proliferation during the culture.

The target of test [4] is IKKε (Homo sapiens (Human), UniProt Q14164). The test is described as follows: IKKε kinase test (384-well flashplate). Type of test: biochemical. The following applies: read-out: IC50 [IKKepsilon]. The protocol:
(§8) The kinase assay is performed as 384-well flashplate assay.
1 nM IKKε, 800 nM biotinylated IκBα(19-42) peptide (biotin-C6-C6-[…]) and 10 μM ATP (with 0.3 μCi of ^33P-ATP/well) are incubated in a total volume of 50 μl (10 mM MOPS, 10 mM magnesium acetate, 0.1 mM EGTA, 1 mM dithiothreitol, 0.02% of Brij35, 0.1% of BSA, 0.1% of BioStab, pH 7.5) with or without test substance at 30° C. for 120 min. The reaction is stopped using 25 μl of 200 mM EDTA solution, filtered off with suction after 30 min at room temperature, and the wells are washed 3 times with 100 μl of 0.9% NaCl solution. The non-specific proportion of the kinase reaction (blank) is determined using 3 μM EMD 1126352 (BX-795). Radioactivity is measured in the Topcount. IC50 values are calculated using RS1.

Test [5] has as its target TANK binding kinase (TBK1) (Homo sapiens (Human), UniProt Q9UHD2). The test can be described thus: TBK1 kinase test (384-well flashplate). In kind it is biochemical. As for the experimental part: as §8
0.6 nM TANK binding kinase (TBK1), 800 nM biotinylated MELK-derived peptide (biotin-Ah-Ah-[…]) and 10 μM ATP (with 0.25 μCi of ^33P-ATP/well) are incubated in a total volume of 50 μl (10 mM MOPS, 10 mM magnesium acetate, 0.1 mM EGTA, 1 mM DTT, 0.02% of Brij35, 0.1% of BSA, pH 7.5) with or without test substance at 30° C. for 120 min. The reaction is stopped using 25 μl of 200 mM EDTA solution, filtered off with suction after 30 min at room temperature, and the wells are washed 3 times with 100 μl of 0.9% NaCl solution. The non-specific proportion of the kinase reaction (blank) is determined using 100 nM staurosporine. Radioactivity is measured in the Topcount. IC50 values are calculated using RS1.

The target in test [6] is PDK1 (Homo sapiens (Human), UniProt O15530). The test is described as follows: Test for the inhibition of PDK1 (flashplate, 33P-ATP). Type of test: biochemical. As for the experimental part: The experimental batches are carried out in a flashplate system with 384 wells/microtitration plate.
Chain of PDK1 (O15530 51-556): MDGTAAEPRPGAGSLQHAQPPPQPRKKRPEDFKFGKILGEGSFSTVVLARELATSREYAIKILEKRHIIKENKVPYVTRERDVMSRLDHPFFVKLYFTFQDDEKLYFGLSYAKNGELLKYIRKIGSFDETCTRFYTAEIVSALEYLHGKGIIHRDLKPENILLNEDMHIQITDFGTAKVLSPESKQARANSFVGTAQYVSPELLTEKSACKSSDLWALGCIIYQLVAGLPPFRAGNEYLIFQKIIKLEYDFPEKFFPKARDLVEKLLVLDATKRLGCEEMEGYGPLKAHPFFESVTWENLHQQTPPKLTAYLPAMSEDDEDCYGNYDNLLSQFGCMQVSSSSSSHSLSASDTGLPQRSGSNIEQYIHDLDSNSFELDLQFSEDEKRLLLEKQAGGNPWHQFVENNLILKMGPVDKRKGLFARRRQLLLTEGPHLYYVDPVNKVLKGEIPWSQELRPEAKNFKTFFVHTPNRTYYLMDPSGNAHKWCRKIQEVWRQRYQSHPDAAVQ
(400 nM), 4 μM ATP (with 0.2 μCi of ^33P-ATP/well) and the test substance in 50 μl of conventional experimental solution per well are incubated at 30° C. for 60 min. The test substances are employed in corresponding concentrations (if desired in a dilution series). The control is carried out without test substance. The reaction is stopped using standard methods and washed. The activity of the kinase is measured via the incorporated radioactivity in top count. In order to determine the non-specific kinase reaction (blank value), the experimental batches are carried out in the presence of 100 nM staurosporine.
The radioactivity (decompositions per minute) of the blank value (no use of test substance in the presence of staurosporine) is subtracted from all other radioactivity values. The controls (kinase activity without test substance) are set equal to 100 percent and all other radioactivity values (after subtracting the blank value) are expressed set in relation thereto (for example in % of the control).

One may read the IC50 as the concentration at which inhibition is half-maximal.

Chain of TANK binding kinase (TBK1) (Q9UHD2 whole entry, species assumed): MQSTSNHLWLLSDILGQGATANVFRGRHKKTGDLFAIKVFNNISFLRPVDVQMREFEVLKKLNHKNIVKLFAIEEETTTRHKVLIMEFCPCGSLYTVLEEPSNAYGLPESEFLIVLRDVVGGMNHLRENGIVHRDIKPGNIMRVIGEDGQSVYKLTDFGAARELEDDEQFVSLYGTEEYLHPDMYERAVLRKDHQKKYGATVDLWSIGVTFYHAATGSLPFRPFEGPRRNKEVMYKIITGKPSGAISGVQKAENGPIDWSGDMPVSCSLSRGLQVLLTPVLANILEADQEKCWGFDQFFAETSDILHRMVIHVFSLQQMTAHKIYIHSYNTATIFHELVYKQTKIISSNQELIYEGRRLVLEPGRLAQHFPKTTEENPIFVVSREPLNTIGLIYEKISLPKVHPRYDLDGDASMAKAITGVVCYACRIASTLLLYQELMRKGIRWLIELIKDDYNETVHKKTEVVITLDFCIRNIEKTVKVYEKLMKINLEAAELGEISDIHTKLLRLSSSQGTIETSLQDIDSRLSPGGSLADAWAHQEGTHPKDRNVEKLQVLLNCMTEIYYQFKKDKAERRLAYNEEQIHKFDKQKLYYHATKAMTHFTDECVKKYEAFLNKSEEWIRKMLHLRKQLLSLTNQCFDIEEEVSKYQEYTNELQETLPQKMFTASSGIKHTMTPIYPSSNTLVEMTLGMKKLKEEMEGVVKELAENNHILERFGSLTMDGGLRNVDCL
Chain of IKKε (Q14164 whole entry, species assumed): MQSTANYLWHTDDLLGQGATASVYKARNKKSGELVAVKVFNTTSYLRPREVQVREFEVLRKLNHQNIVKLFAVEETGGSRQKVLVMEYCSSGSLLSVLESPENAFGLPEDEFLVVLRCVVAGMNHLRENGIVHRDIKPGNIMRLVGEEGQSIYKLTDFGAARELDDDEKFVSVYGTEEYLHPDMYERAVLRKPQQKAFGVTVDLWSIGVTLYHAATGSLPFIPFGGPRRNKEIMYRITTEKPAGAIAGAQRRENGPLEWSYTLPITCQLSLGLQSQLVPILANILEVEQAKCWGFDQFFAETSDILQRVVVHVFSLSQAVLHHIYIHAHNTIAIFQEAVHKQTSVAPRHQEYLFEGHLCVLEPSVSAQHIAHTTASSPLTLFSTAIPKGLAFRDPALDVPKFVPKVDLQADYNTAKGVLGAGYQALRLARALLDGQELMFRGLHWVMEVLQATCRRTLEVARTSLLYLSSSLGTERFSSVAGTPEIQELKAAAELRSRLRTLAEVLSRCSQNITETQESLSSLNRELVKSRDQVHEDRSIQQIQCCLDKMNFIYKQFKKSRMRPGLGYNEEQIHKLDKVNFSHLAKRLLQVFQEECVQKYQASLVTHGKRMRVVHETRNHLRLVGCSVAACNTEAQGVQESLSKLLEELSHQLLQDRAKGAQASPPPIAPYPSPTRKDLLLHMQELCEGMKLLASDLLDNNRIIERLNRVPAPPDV

For the molecule `Nc1cc(-c2c[nH]c3ncccc23)c2ccccc2n1` [Compound A1, 4-(1H-pyrrolo[2,3-b]pyridin-3-yl)quinolin-2-ylamine], the half-maximal inhibitory concentration (IC50) in test [1] and in test [2] was 1 to 10 µM in each case.

As for `c1cnc2[nH]cc(-c3cnc4ncccn34)c2c1` [Compound A3, 3-(1H-pyrrolo[2,3-b]pyridin-3-yl)imidazo[1,2-a]pyrimidine], the IC50 in test [1] and in test [2] was 1 to 10 µM in each case.

Take `c1ccc2c(-c3c[nH]c4ncccc34)cnnc2c1` [Compound A4, 4-(1H-pyrrolo[2,3-b]pyridin-3-yl)cinnoline]: the IC50 in test [1], in test [2] and in test [3] was 1 to 10 µM throughout.

Consider `c1cc(-c2c[nH]c3ncccc23)c2ccncc2c1` [Compound A7, 5-(1H-pyrrolo[2,3-b]pyridin-3-yl)isoquinoline], for which the half-inhibitory concentration (IC50) in test [1] lay within 1 to 10 µM; in test [2], 1 to 10 µM; in test [4], 1 to 10 µM; in test [3] it was 0.0005 to 1 µM; in test [5], 1 to 10 µM.

For the molecule `Nc1nccc2c(-c3c[nH]c4ncccc34)cccc12` [Compound A11, 5-(1H-pyrrolo[2,3-b]pyridin-3-yl)isoquinolin-1-ylamine], the half-maximal inhibitory concentration (IC50) in test [1], in test [2] and in test [3] was 1 to 10 µM in each case.

Consider `Cn1cc(-c2cnc3[nH]cc(-c4cn(S(=O)(=O)c5ccccc5)c5cnccc45)c3c2)cn1` [Compound A14, 1-benzenesulfonyl-3-[5-(1-methyl-1H-pyrazol-4-yl)-1H-pyrrolo[2,3-b]pyridin-3-yl]-1H-pyrrolo[2,3-c]pyridine], for which the IC50 in test [2] was in the range of 0.01 to 1 µM; in test [4], 0.0005 to 1 µM; in test [6] it was 1 to 10 µM; in test [5], 0.0005 to 1 µM.

The molecule `Cc1[nH]c2ncccc2c1-c1cccc2cnccc12` [Compound A15, 5-(2-methyl-1H-pyrrolo[2,3-b]pyridin-3-yl)isoquinoline] had a concentration for half-maximal inhibition (IC50) in test [3] of 0.0005 to 1 µM.

In test [3], `c1cnc2[nH]cc(-c3nccc4cnccc34)c2c1` [Compound A16, 1-(1H-pyrrolo[2,3-b]pyridin-3-yl)-2,6-naphthyridine] registered an IC50 of 0.0005 to 1 µM.

In the case of `Cn1cc(-c2cccc3cnccc23)c2cccnc21` [Compound A17, 5-(1-methyl-1H-pyrrolo[2,3-b]pyridin-3-yl)isoquinoline], the half-maximal inhibitory concentration (IC50) in test [3] was 0.0005 to 1 µM.

As to `c1cnc2[nH]cc(-c3c[nH]c4cnccc34)c2c1` [Compound A18, 3-(1H-pyrrolo[2,3-b]pyridin-3-yl)-1H-pyrrolo[2,3-c]pyridine], the IC50 in test [4] fell in the range of 1 to 10 µM; in test [6], 1 to 10 µM; in test [3] it was 1 to 10 µM; in test [5], 0.0005 to 1 µM.

Take `Cn1cc(-c2c[nH]c3ncccc23)c2ccncc21` [Compound A19, 1-methyl-3-(1H-pyrrolo[2,3-b]pyridin-3-yl)-1H-pyrrolo[2,3-c]pyridine]: the IC50 in test [3] was 1 to 10 µM.

On to `Cn1cc(-c2cnc3[nH]cc(-c4c[nH]c5cnccc45)c3c2)cn1` [Compound A20, 3-[5-(1-methyl-1H-pyrazol-4-yl)-1H-pyrrolo[2,3-b]pyridin-3-yl]-1H-pyrrolo[2,3-c]pyridine], for which the 50% inhibitory concentration (IC50) in test [1] lay within 0.01 to 1 µM; in test [2], 0.01 to 1 µM; in test [4], 0.0005 to 1 µM; in test [6] it was 0.0005 to 1 µM; in test [3], 0.0005 to 1 µM; in test [5], 0.0005 to 1 µM.

With `c1ccc(-c2cc3nccc(-c4c[nH]c5ncccc45)c3o2)cc1` [Compound A21, 2-phenyl-7-(1H-pyrrolo[2,3-b]pyridin-3-yl)furo[3,2-b]pyridine], the 50% inhibitory concentration (IC50) in test [1] and in test [2] was 0.01 to 1 µM in each case.

With `Nc1ncc(-c2c[nH]c3ncccc23)c2ccncc12` [Compound A24, 4-(1H-pyrrolo[2,3-b]pyridin-3-yl)-2,7-naphthyridin-1-ylamine], the 50% inhibitory concentration (IC50) lay within 1 to 10 µM in test [1], 1 to 10 µM in test [2], 0.0005 to 1 µM in test [3] and 1 to 10 µM in test [5].

In test [3], `Cc1[nH]c2ncccc2c1-c1nccc2cnccc12` [Compound A28, 1-(2-methyl-1H-pyrrolo[2,3-b]pyridin-3-yl)-2,6-naphthyridine] displayed a concentration for half-maximal inhibition (IC50) of 0.0005 to 1 µM.

As to `Cn1cc(-c2c[nH]c3cnccc23)c2cccnc21` [Compound A29, 3-(1-methyl-1H-pyrrolo[2,3-b]pyridin-3-yl)-1H-pyrrolo[2,3-c]-pyridine], the IC50 in test [1] and in test [2] was 1 to 10 µM in each case.

With `Cc1[nH]c2ncccc2c1-c1nccc2c(N)nccc12` [Compound A31, 5-(2-methyl-1H-pyrrolo[2,3-b]pyridin-3-yl)-2,6-naphthyridin-1-ylamine], the 50% inhibitory concentration (IC50) in test [1] fell in the range of 1 to 10 µM; in test [2], 1 to 10 µM; in test [3] it was 0.0005 to 1 µM.

Consider `Nc1nccc2c(-c3c[nH]c4ncccc34)nccc12` [Compound A32, 5-(1H-pyrrolo[2,3-b]pyridin-3-yl)-2,6-naphthyridin-1-ylamine], for which the IC50 in test [1] fell in the range of 1 to 10 µM; in test [3], 0.0005 to 1 µM.

As to `Cn1cc(-c2cnc3[nH]cc(-c4cn(C)c5cnccc45)c3c2)cn1` [Compound A33, 1-methyl-3-[5-(1-methyl-1H-pyrazol-4-yl)-1H-pyrrolo[2,3-b]-pyridin-3-yl]-1H-pyrrolo[2,3-c]pyridine], the IC50 in test [4], in test [6], in test [3] and in test [5] was 0.0005 to 1 µM in each case.

The values are drawn from patent US9725446B2, “7-azaindole derivatives” (MERCK PATENT GmbH, priority 2011, dated 2017).
